Measured values from patent US12606773B2, “Ionizable cationic lipids” (Akagera Medicines, Inc., priority 2020, dated 2026).

How the values were obtained:
[1] = LNP zeta potential (ZetaSizer Pro); type: physicochemical; settings: same LNPs; for Zeta Potential mV, pH 5: Table 4, pH 5; for Zeta Potential mV, pH 7: Table 4, pH 7
[2] = mRNA encapsulation efficiency by Ribogreen fluorescent binding dye; type: physicochemical; settings: same LNPs; for Encapsulation Efficiency (%): Table 4; for % Encapsulation ± SD: Table 3
Description: A. mRNA Concentration and Relative Encapsulation Efficiency Determination by Fluorescent Binding Dye
• Materials: Ribogreen reagent (Thermo #11491), 3×96-well plates with lids, PBS, dissociation buffer (PBS with 10% DMSO and 1% (wt/wt) Zwittergent 3-14 (Sigma-Aldrich #693017), mRNA, general pipette tips & repeater pipette tips. • 1. 5 mL of 2 μg/mL mRNA stock were prepared in DPBS or PBS • 2. Diluted standards were prepared as follows in single wells in a 96-well plate (Plate A);
• 3. Using different wells in Plate A, samples were diluted to be within the standard curve, you'll need one well per sample. For example, if the approximate mRNA concentration should be ˜30 ug/mL in the sample, a 20× dilution was performed (Dilution Factor). (20 uL sample added to 380 μL PBS in a well). No lid was used on plate A. Samples were mixed by gentle pipetting up & down.
• 4. Two more plates, plates B & C were used. Using a multichannel pipettor, 60 μL of each standard 2 were pipetted into wells each (duplicate), and sample into 3 wells each (triplicate)
(§1) • 5. The number of wells used on each plate was counted and 4 was added to this number. For plate B, PBS was prepared with Ribogreen diluted 1:100. For example, for 40 wells, 44 was used as the number. 44×60 μL=2.64 mL Ribogreen solution needed, so that would be 2.61 mL PBS with 26.4 μL Ribogreen. • 6. For plate C, 2.61 mL Dissociation buffer and 26.4 uL Ribogreen was pipetted. • 7. Using a repeater pipette set for 60 μL, PBS+RiboGreen was added to each well on plate B and 60 μL Dissociation Buffer+Ribogreen to plate C. Both plates B and C were mixed on an orbital mixer (120 rpm) for 1 min. Plate B was placed in the dark for 15 min. Plate C was incubated at 37° C. in the dark for 10 min, followed by 5 min at RT. • 8. Both plates were read one after the other, using Ex. 465, Em. 530 nm • 9. Using the standard curve, the slope and intercept were calculated and by extrapolation the mRNA concentrations of the samples on plate B & C were calculated (average and std.dev) • 10. Percent encapsulation efficiency (% EE) by [mRNA] plate B/[mRNA] plate C×100 was calculated • 11. Total [mRNA] by taking [mRNA] plate C×dilution factor was calculated. B. LNP Particle Size • 1. […] C. LNP Zeta Potential • 1.

MutuDC1940 cells = experiment: Transfection efficiency of mCherry mRNA LNPs in murine dendritic cells; type: cell-based; settings: LNPs 1 μg/mL, 24h
Description: A. Cell Propagation, Transfection, Harvesting and Staining Protocol
• 1. MutuDC1940 cells (ABM) were grown according to supplier's instructions in T75 flasks.
When required, they were plated at 180,000 cells/well into 24-well plate one day prior to transfection. • 2. LNPs were added in triplicate to each well at 1 μg/mL in 1 mL media and after 24h the cells were washed once with DPBS (VWR 02-0119-1000). • 3. 0.2 mL of DPBS (plus 5 mM EDTA, pH 7.4) was then added to facilitate detachment. • 4. The cells were placed at 37° C. for 3 min, until detached. • 5. 0.5 ml DPBS added to each well and the liquid transferred to a flow cytometry tube (Falcon 5 mL #352054) • 6. The tube was centrifuged at 1100 rpm for 3-5 min and the liquid poured off • 7. 100 μL of Zombie Violet (Biolegend) (diluted 1:500 in PBS) was added to each tube • 8. The tubes were gently tapped to resuspend cells and placed in the dark for 15 min at RT • 9. To the cells 0.5 mL of (paraformaldehyde 4% in PBS:DPBS 1:1) was added and the cells flicked gently to resuspend and put on ice for 30 min. Another 2 ml PBS was added. • 10. The cells were pelleted as above and resuspended in 0.5 mL DPBS with 5% BSA and placed in the fridge until needed. B. Cell Analysis • 1. Cells suspensions were analyzed by an Attune NxT flow cytometer using the VL1 and YL2 for live/dead and mCherry fluorescence signals respectively. Gating analysis was performed on FloJo software.

[3] = Accelerated oxidation with H2O2/Fe(III)Cl, main lipid peak by UHPLC-CAD; type: physicochemical; settings: for % of parent lipid peak at time 0, 24 h / % of parent lipid peak at time 0, 48 h / % of parent lipid peak at time 0, 72 h: 1% H2O2, 100 μM Fe(III)Cl, 37° C.; for stability under accelerated oxidation with hydrogen peroxide: compared to counterparts with a single methylene separating the two olefins
Description: Individual lipid stocks (10 mM) were prepared in ethanol and stored at −20° C. […] Liposomal formulations based on AKG-UO-1 and 0-11769 ionizable cationic lipids (Table 5) were prepared by combining lipid mixtures of desired composition in 1 mL ethanol with 3 mL 6.25 mM sodium acetate, pH 5.0 at 6 mL/min on a NanoAssemblr (Precision Nanosystems). 3.6 mL of the mixture was retained, while the initial 0.35 mL of the mixture and final 0.05 mL were discarded. Ethanol was removed by buffer exchange into PBS, pH 7.4 by concentrating each liposome preparation using an Aminon-Ultra 4 centrifugal concentrator at 500 g for 10 min at 4° C. and diluting back to the original volume with PBS. This cycle was repeated multiple times until the ethanol concentration was <1%. Finally, liposomes were sterile filtered through 0.2 μm PES (Nalgene) syringe filters and size measured by a ZetaSizer (Malvern).
Aliquots of the liposomal formulations were stored at −80° C. and thawed before the experiment. A combined stock in water of 10% H2O2 (Sigma-Aldrich, cat #H1009) and 1 mM of Fe(III)Cl (Sigma-Aldrich, cat #372870) was freshly prepared prior to the treatment. To make 1% final concentration of H2O2 and 100 μM Fe(III)Cl, 10 μl of 10% H2O2/1 mM Fe(III)Cl stock was added to 90 μl of both liposomal formulations and individual lipids The liposomes and individual lipids were incubated with H2O2/Fe(III)Cl at 37° C. and then 5 μl from each sample was taken at different time points (0, 3, 24, 48 and 72 hours) and dissolved in 90 μl of MeOH for HPLC analysis. Degradation of the main lipid peak was analyzed using Thermo Scientific Vanquish Flex UHPLC occupied with Charged Aerosol Detector (CAD) and Thermo Scientific Accucore™ C18+ UHPLC column (L=50 mm, D=2.1 mm, Particle Size=1.5 μm).
The data are presented as a percentage of the main lipid peak measured at different time points relative to the lipid peak measured at time zero.

[4] = LNP particle size and polydispersity (ZetaSizer); type: physicochemical; settings: for Particle Size (nm): mCherry mRNA LNP, 50 mol % ICL, N/P 5, DSPC 10, cholesterol 38.5, PEG-DMG 1.5 mol %; for Particle Size (nm) Post-Freeze/Thaw / Polydispersity Index PDI: same LNPs; for Particle Size (nm) Post-Freeze/Thaw: Table 4, post freeze/thaw
Description: as §1

| SMILES | Zeta Potential mV, pH 5 [1] [mV] | Zeta Potential mV, pH 7 [1] [mV] | Encapsulation Efficiency (%) [2] [%] | fold higher mCherry expression than LNPs incorporating 0-11769 (MutuDC1940 cells; relative to 0-11769 LNP) [fold] | % of parent lipid peak at time 0, 24 h ([3]; ICL lipid suspensions) [%] | % of parent lipid peak at time 0, 48 h ([3]; ICL lipid suspensions) [%] | % of parent lipid peak at time 0, 72 h ([3]; ICL lipid suspensions) [%] | % of parent lipid peak at time 0, 72 h ([3]; Liposome preparations) [%] | stability under accelerated oxidation with hydrogen peroxide [3] | Particle Size (nm) ([4]; Table 4) | Particle Size (nm) Post-Freeze/Thaw [4] [nm] | % Encapsulation ± SD [2] [%] | fold higher mCherry expression than KC3 (MutuDC1940 cells; relative to KC3 LNP) [fold] | Particle Size (nm) ([4]; Table 3) | Polydispersity Index PDI ([4]; Table 3) | degradation after 48 hours of incubation with hydrogen peroxide [3] | fold higher mCherry expression than KC2 (MutuDC1940 cells; relative to KC2 LNP) [fold] |
| --- | --- | --- | --- | --- | --- | --- | --- | --- | --- | --- | --- | --- | --- | --- | --- | --- | --- |
| CCCCC/C=C\CCCC/C=C\CCCCC(=O)OC[C@H](CCN(C)C)OC(=O)CCCC/C=C\CCCC/C=C\CCCCC [UO-1, (S)-4-(dimethylamino)butane-1,2-diyl (6Z,6′Z,12Z,12′Z)-bis(octadeca-6,12-dienoate)] | 21.9 | 2.3 | 75.4 ± 2.2 | 4.2 | 78 ± 0.6 | 74 ± 0.1 | 65 ± 2.5 | 73±0.05 | dramatically superior stability | 98.0 | 122.6 |  |  |  |  |  |  |
| CCCCC/C=C\CCCC/C=C\CCCCCC1(CCCCC/C=C\CCCC/C=C\CCCCC)OC[C@H](CCCN(C)C)O1 [KC3-01, 3-((S)-2,2-di((6Z,12Z)-octadeca-6,12-dien-1-yl)-1,3-dioxolan-4-yl)-N,N-dimethylpropan-1-amine] |  |  |  |  |  |  |  |  | dramatically superior stability |  |  | 88.9 ± 2.7 | 3.4 | 91.6 | 0.03 |  |  |
| CCCCC/C=C\C/C=C\CCCCCCCCC1(CCCCCCCC/C=C\C/C=C\CCCCC)OCC(CCN(C)C)O1 (centres unmarked) [KC2, reference compound] |  |  |  |  |  |  | 0 ± 0.0 |  |  |  |  | 68.2 ± 3.7 |  | 93.7 | 0.01 | fully degraded |  |
| CCCCC/C=C\CCCC/C=C\CCCCC(=O)OC[C@H](CCN(CC)CC)OC(=O)CCCC/C=C\CCCC/C=C\CCCCC [AKG-UO1A, (S)-4-(diethylamino)butane-1,2-diyl (6Z,6′Z,12Z,12′Z)-bis(octadeca-6,12-dienoate)] | 28.0 | −0.9 | 77.5 ± 0.9 |  |  |  |  |  |  | 84.4 | 103.2 |  |  |  |  |  |  |
| CCCCC/C=C\CCCC/C=C\CCCCCC1(CCCCC/C=C\CCCC/C=C\CCCCC)OC[C@H](CCN(C)C)O1 [KC2-01, 2-((S)-2,2-di((6Z,12Z)-octadeca-6,12-dien-1-yl)-1,3-dioxolan-4-yl)-N,N-dimethylethan-1-amine] |  |  |  |  |  |  |  |  | dramatically superior stability |  |  | 88.9 ± 1.6 |  | 70.7 | 0.06 |  | 4.4 |
| CCCCCCCC/C=C\CCCCCCCC(=O)OC[C@H](CCN(C)C)OC(=O)CCCCCCC/C=C\CCCCCCCC [AKG-DM2-OA] | 19.1 | 2.2 | 64.9 ± 3.4 |  |  |  |  |  |  | 77.6 | 111.5 |  |  |  |  |  |  |
| CCCCC/C=C\C/C=C\CCCCCCCC(=O)OC[C@H](CCN(C)C)OC(=O)CCCCCCC/C=C\C/C=C\CCCCC [Compound O-11769, reference compound] | 17.1 | 4.1 | 87.5 ± 2.7 |  | 31 ± 0.9 | 1 ± 0.2 | 0.3 ± 0.1 | 3.9±0.06 |  | 83.0 | 89.6 |  |  |  |  | fully degraded |  |
| CCCCCCCC/C=C\CCCCCCCC(=O)OC[C@H](CN(C)C)OC(=O)CCCCCCC/C=C\CCCCCCCC [DODAP, reference compound] | 10.2 | −0.7 | 83.4 ± 7.7 |  |  |  |  |  |  | 69.8 | 68.2 |  |  |  |  |  |  |
| CCCCC/C=C\C/C=C\CCCCCCCCC1(CCCCCCCC/C=C\C/C=C\CCCCC)OCC(CCCN(C)C)O1 (centres unmarked) [KC3, reference compound] |  |  |  |  |  |  | 0 ± 0.0 |  |  |  |  | 87.0 ± 2.3 |  | 101.5 | 0.23 | fully degraded |  |
